Measured values from PMC12444563 (ACS Omega, 2025).
Entries after “also recorded” stand apart in the source; their conditions may differ. Starred links: 1 amine or outer side, 2 acyl side, 3 side chain; linkers in the order of their positions; H or OH if unused. Non-standard residues stand in square brackets, D forms with d. Residues, ends and D or L forms follow the SMILES beside them. *: point of attachment. Paclitaxel(2'-OCO-DMEDA) = CC(=O)O[C@H]1C(=O)[C@@]2(C)[C@H]([C@H](OC(=O)c3ccccc3)[C@]3(O)C[C@H](OC(=O)[C@H](OC(=O)N(C)CCN(C)*)[C@@H](NC(=O)c4ccccc4)c4ccccc4)C(C)=C1C3(C)C)[C@]1(OC(C)=O)CO[C@@H]1C[C@@H]2O; Dolaproine = CO[C@@H]([C@@H]1CCCN1)[C@@H](C)C(=O)O; Dil = CC[C@H](C)[C@H](NC)[C@@H](CC(=O)O)OC; Fmoc = O=C(OCC1c2ccccc2-c2ccccc21)*; PABC = O=C(OCc1ccc(N[*:1])cc1)[*:2]; X1 = C[C@@H](N*)[C@@H](O)c1ccccc1; NMeV = CN[C@H](C(=O)O)C(C)C

Columns and labels:
U87MG cancer cell lines = tested on: U87MG cancer cell lines; set-up: method as in PMID 37492088; details: short-contact time antiproliferative assay; earlier work of the authors; read-out: IC50 against U87MG cancer cell lines; cited from earlier work
[1] = human plasma (Pooled; Innovative Research); details: 37 °C, up to 4 hours
[2] = human liver S9 fraction (male, pooled, Xeno-tech); details: 37 °C, up to 90 minutes
[3] = rat plasma (Strain: Sprague Dawley; Innovative Research); details: 37 °C, up to 4 hours
[4] = tested on: bovine spleen Cathepsin B (SigmaAldrich C6286, ≥10 units/mg protein); assay: activated Cathepsin B (1.12 u/mL) in 20 mM NaOAc, 1 mM EDTA, pH 5.4, with L-cysteine; details: 37 °C, up to 24 h
[5] = tested on: Cathepsin B (SigmaAldrich C6286); assay: bovine spleen Cathepsin B in 20 mM NaOAc, 1 mM EDTA, pH 5.4, activated with L-cysteine; details: 37 °C, up to 24 h
[6] = rat liver S9 fraction (male, pooled, Xeno-tech); details: 37 °C, up to 90 minutes

Row | fragment found [5] | Compound | IC50 (U87MG cancer cell lines) [µM] | not cleaved [1] | not cleaved [2] | not cleaved [3] | cleaved bond [4] | fragment found [4] | not cleaved [6] | not cleaved [4]
1 |  | CC[C@H](C)[C@@H]([C@@H](CC(=O)N1CCC[C@H]1[C@H](OC)[C@@H](C)C(=O)N[C@H](C)[C@@H](O)c1ccccc1)OC)N(C)C(=O)[C@@H](NC(=O)[C@@H](NC)C(C)C)C(C)C [MMAE, monomethyl auristatin E] (H-[NMeV]V[Dil][Dolaproine]-X1) | 2.13 |  |  |  |  |  |  | 
2 |  | Fmoc-GFLG-PABC-diamine-PTX (Fmoc-GFLG[PABC]-{Paclitaxel(2'-OCO-DMEDA)}; SMILES CC(=O)O[C@H]1C(=O)[C@@]2(C)[C@H]([C@H](OC(=O)c3ccccc3)[C@]3(O)C[C@H](OC(=O)[C@H](OC(=O)N(C)CCN(C)C(=O)OCc4ccc(NC(=O)CNC(=O)[C@H](CC(C)C)NC(=O)[C@H](Cc5ccccc5)NC(=O)CNC(=O)OCC5c6ccccc6-c6ccccc65)cc4)[C@@H](NC(=O)c4ccccc4)c4ccccc4)C(C)=C1C3(C)C)[C@]1(OC(C)=O)CO[C@@H]1C[C@@H]2O) |  | 93.9% remaining at 240 min | 95.232% remaining at 90 min | 103.3% remaining at 240 min | Gly-Phe, 2 min; also recorded: Gly-PABC | diamine-PTX (fragment II) |  | 
3 | PABC-diamine-PTX (fragment I) | Fmoc-VA-PABC-diamine-PTX |  | 107.1% remaining at 240 min |  | 108.0% remaining at 240 min |  | PABC-diamine-PTX (fragment I); also recorded: diamine-PTX (fragment II) |  | 
4 |  | Fmoc-GPLG-PABC-diamine-PTX |  | 100% of residual compound after 4 h (Table S7: 112.1% at 240 min) | more than 94% intact after 1.5 h (Table S7: 94.986% at 90 min) | 100% of residual compound after 4 h (Table S7: 103.0% at 240 min) | Gly-PABC, first_seen, 2 min | diamine-PTX (fragment II), 2 min; also recorded: free PTX, 24 h | more than 94% intact after 1.5 h (Table S7: 94.464% at 90 min) | no cleavage between Gly and Pro residues was observed throughout the experiment time
5 | PABC-diamine-PTX (fragment I) | Fmoc-VCit-PABC-diamine-PTX |  |  |  | 118.1% remaining at 240 min |  | PABC-diamine-PTX (fragment I); also recorded: diamine-PTX (fragment II) |  | 
